# Measured values reported in US8481005B2, “Methods to prevent cytotoxicity using N-acetyl-cysteine” (priority 2006, dated 2013).
# Columns and labels:
# [1] = test system: HEp2 cells co-cultured with PBMCs; test: VEGF in co-cultures of HEMA/NAC treated HEp2 cells with PBMCs (multiplex cytokine array); type: cell-based, human; design: unit not given here
# Procedure: (§1) Treatment with NAC inhibits HEMA-mediated cell death and cytotoxicity. Thus, its ability to protect the function of cells in the presence of HEMA was also evaluated further. […] The cells were trypsinized and washed 4 times with 1×PBS before they were co-cultured with PBMCs obtained from a healthy individual. A 4:1 ratio of effector to target cells (PBMC:HEp2) were used in these cultures. PBMCs were treated with and without IL-2 before they were co-cultured with HEp-2 cells. The supernatants were then removed from the co-cultures after an overnight incubation and analyzed using the FAST QUANT multiplex cytokine array kit to determine the levels of secreted cytokines.
# [2] = test system: HEp2 cells co-cultured with PBMCs; test: IL-6 in co-cultures of HEMA/NAC treated HEp2 cells with healthy donor PBMCs; type: cell-based, human
# Procedure: as §1, with “HEp-2 cells obtained from ATCC were cultured in DMEM supplemented” for “Treatment”, “10% FBS, 1% sodium pyruvate, 1% non essential amino acids” for “NAC inhibits HEMA-mediated cell death”, “1% antibiotic-antimycotic solution.” for “cytotoxicity. Thus, its ability to protect the function of cells in the presence of HEMA was also evaluated further.”
# [3] = test system: human dental pulp stromal cells; test: VEGF release from human dental pulp stromal cells (Table 4); type: cell-based
# Procedure: (§2) The cells were then grown in media containing β-glycerophosphate and ascorbic acid until they reached confluency. […] Supernatants were measured for VEGF release.
# [4] = test system: UCLA-2 cells (a primary oral tumor line); test: VEGF release from UCLA-2 cells (Table 4); type: cell-based
# Procedure: as §2
# [5] = test system: peripheral blood mononuclear cells; test: PI/Annexin V apoptosis in peripheral blood mononuclear cells; type: cell-based, human; settings: PBMCs, overnight
# Procedure: PBMCs were isolated and obtained after Ficoll-hypaque centrifugation as described in Jewett et al., 159, J. Immunol. (1997) which is hereby incorporated by reference. Specifically, human peripheral blood was obtained from normal donors in the laboratory as per guidelines of the UCLA Human Subject Protection Committee. The blood was fractionated on Ficoll-Hypaque, and the buffy layer was harvested, washed and resuspended in media.
# Peripheral blood mononuclear cells were then cultured in RPMI 1640 supplemented with 10% FCS, 1% penicillin-streptomycin, 1% sodium pyruvate and 1% non-essential amino acids.
# Cells were simultaneously treated in the presence and absence of NAC overnight. […] It is quite well known that apoptotic cells initially lose their size and gain in granularity when they undergo cell death. These changes are one hallmark of apoptosis.
# HaCaT cells = test: PI/Annexin V cell death in HaCaT skin keratinocytes; type: cell-based; settings: HEMA 0.082M to 0.00164M alone or with NAC 20 mM, overnight
# Procedure: Ten thousand events were analyzed for each sample. (FIG. 5)
# odontoblasts = test: ALP staining of rat odontoblasts; type: cell-based; settings: 0.00328M HEMA; overnight, 7 days or 14 days
# Procedure: Restoring the function of cells is also very important. Therefore, ALP staining was performed as a measure of odontoblast function. […] Following this incubation, cells were washed twice with PBS and incubated with 120 mM of Tris buffer (pH=8.4) containing 0.9 mM Napthol AS-M Phosphate and 1.8 mM Fast Red TR for 30 minutes at 37° C. Afterwards the cells were washed three times with PBS and then fixed with 1 ml cold ethanol (100%) for about 30 minutes. The stained cultures were digitized using a scanner.
# Jurkat T cells = test: Cell death in Jurkat T cells (PI/FITC-Annexin V); type: cell-based; settings: 0.082M-0.0082M HEMA and/or NAC 20 mM simultaneously; overnight
# Procedure: After an overnight incubation the levels of cell death in Jurkat T cells were determined using dual staining with PI/FITC-Annexin V as described previously (FIG. 19B). 10,000 events were analyzed for each sample. Similar results were obtained when apoptosis was assessed by PI staining of ethanol fixed Jurkat T cells. • 2. Decreased Levels of Full Length Caspase 9 and Caspase 3 in HEMA-Treated Keratinocytes
# Jurkat cells = test: Mitochondrial membrane potential in Jurkat cells (DiOC6); type: cell-based; settings: HEMA alone or with NAC 20 mM
# Procedure: The membrane potential was assessed by staining with DiOC6 which is a positively charged dye. At low concentrations, it accumulates in mitochondria due to their large negative membrane potential. However when the membrane potential is disrupted there is less binding of this dye.
# Caspase 3 [6] = test: Caspase 3 induction in Jurkat cells; type: cell-based; settings: HEMA alone or with NAC 20 mM
# Caspase 3 [7] = test: Full length caspase 3 in keratinocytes; type: cell-based; settings: about 8 hours, NAC 20 mM
# Description: Roles of NFkB and GAPDH in HEMA-Mediated Cell Death
# GAPDH mRNA = GAPDH mRNA in dental pulp stromal cells (RT-PCR); type: cell-based; settings: HEMA alone or with NAC 20 mM, 4 hours
# Procedure: The role of GAPDH in HEMA-mediated cytotoxicity was also evaluated. […] In comparison no significant decrease in β-actin and collagen-1 under the same experimental conditions could be seen.
# [8] = test system: human mesenchymal stem cells; test: VEGF secretion of human mesenchymal stem cells (ELISA); type: cell-based; settings: HEMA alone or with NAC 20 mM, 4 hours, then overnight
# mesenchymal stem cells = test: Cell death of mesenchymal stem cells (FITC-Annexin V and PI); type: cell-based
# Description: Treated mesenchymal stem cells were then removed and cell death determined using FITC-Annexin V and PI staining.
# osteoblasts = test: Cell death of osteoblasts differentiated from mesenchymal stem cells; type: cell-based
# Procedure: In a subsequent study, mesenchymal stem cells were differentiated to osteoblasts in differentiation media. […] Treated osteoblasts were then removed and cell death was determined using FITC-Annexin V and PI staining.
# [9] = test system: HEp2 cells co-cultured with PBMCs; test: VEGF in co-cultures of HEMA/NAC treated HEp2 cells with PBMCs (multiplex cytokine array); type: cell-based, human; design: unit not given here; remark: listed apart in the source
# [10] = HEMA 0.00164M, alone or with NAC
# [11] = HEMA 0.0082M, alone or with NAC
# [12] = HEMA 0.0164M, alone or with NAC
# [13] = 0.0164M HEMA alone (HEMA) or also treated with NAC (NAC)
smiles,measurement,setting,value
"C=C(C)C(=O)OCCO [HEMA, hydroxyethyl methacrylate]",VEGF,"[1]; HEp2 +0.00164M HEMA, −/+NAC, Control PBMC +IL-2",6923
same,VEGF,"[1]; HEp2 +0.00164M HEMA, −/+NAC, Control PBMC −IL-2",6640
same,VEGF,"[1]; HEp2 +0.00164M HEMA, −/+NAC, No PBMC",7139
same,VEGF,"[1]; HEp2 +0.0164M HEMA, −/+NAC, Control PBMC +IL-2",323
same,VEGF,"[1]; HEp2 +0.0164M HEMA, −/+NAC, Control PBMC −IL-2",582
same,VEGF,"[1]; HEp2 +0.0164M HEMA, −/+NAC, No PBMC",294
same,IL-6,"[2]; HEp2 +0.00082M HEMA, −/+NAC, PBMC +IL-2",371 pg/mL
same,IL-6,"[2]; HEp2 +0.00082M HEMA, −/+NAC, PBMC −IL-2",204 pg/mL
same,IL-6,"[2]; HEp2 +0.00164M HEMA, −/+NAC, PBMC +IL-2",264 pg/mL
same,IL-6,"[2]; HEp2 +0.00164M HEMA, −/+NAC, PBMC −IL-2",208 pg/mL
same,IL-6,"[2]; HEp2 +0.0082M HEMA, −/+NAC, PBMC +IL-2",243 pg/mL
same,IL-6,"[2]; HEp2 +0.0082M HEMA, −/+NAC, PBMC −IL-2",192 pg/mL
same,IL-6,"[2]; HEp2 +0.0164M HEMA, −/+NAC, PBMC +IL-2",262 pg/mL
same,IL-6,"[2]; HEp2 +0.0164M HEMA, −/+NAC, PBMC −IL-2",191 pg/mL
same,Human dental pulp stromal cells (VEFG secretion),[3]; [10],163.7 pg/mL
same,Human dental pulp stromal cells (VEFG secretion),[3]; [11],125.1 pg/mL
same,Human dental pulp stromal cells (VEFG secretion),[3]; [12],113.4 pg/mL
same,UCLA-2 (VEFG secretion),[4]; [10],3258.8 pg/mL
same,UCLA-2 (VEFG secretion),[4]; [11],319.6 pg/mL
same,UCLA-2 (VEFG secretion),[4]; [12],180.2 pg/mL
same,cells in the stage of late apoptosis (PI/Annexin V),[5]; 0.0082M HEMA alone (HEMA) or also treated with NAC (NAC),39%
same,cells in the stage of late apoptosis (PI/Annexin V),[5]; [13],about 45%
same,apoptotic cell death (PI/Annexin V),HaCaT cells,dose dependent induction of apoptotic cell death
same,ALP staining (odontoblast function),odontoblasts,significantly less staining
same,apoptotic cell death,Jurkat T cells,undergo apoptotic cell death
same,mitochondrial membrane potential (Δψm),Jurkat cells,decrease in mitochondrial membrane potential
same,Caspase 3 induction,Caspase 3 [6],increase in Caspase 3 induction
same,levels of full length caspase 3 (processing of caspase 3),Caspase 3 [7],decrease in the levels of full length caspase 3
same,GAPDH mRNA,GAPDH mRNA,significant inhibition of GAPDH mRNA
same,VEGF secretion,[8],significantly decreased secretion of VEGF
same,cells that underwent cell death,"mesenchymal stem cells; mesenchymal stem cells, 0.0164M HEMA",86.1%
same,cells that underwent cell death,"osteoblasts; osteoblasts, 0.0164M HEMA",49.7%
same,VEGF,"[9]; HEp2 +0.00164M HEMA, −/+NAC, Patient PBMC +IL-2",7760
same,VEGF,"[9]; HEp2 +0.00164M HEMA, −/+NAC, Patient PBMC −IL-2",6550
same,VEGF,"[9]; HEp2 +0.0164M HEMA, −/+NAC 20 mM, about 18 hours, Patient PBMC −IL-2",1161
same,VEGF,"[9]; HEp2 +0.0164M HEMA, −/+NAC, Patient PBMC +IL-2",379
"CC(=O)N[C@@H](CS)C(=O)O [NAC, N-acetyl-cysteine]",VEGF,"[1]; HEp2 −HEMA (+NAC), Control PBMC +IL-2",5376
same,VEGF,"[1]; HEp2 −HEMA (+NAC), Control PBMC −IL-2",5260
same,VEGF,"[1]; HEp2 −HEMA (+NAC), No PBMC",4714
same,IL-6,"[2]; HEp2 −HEMA (+NAC), PBMC +IL-2",1835 pg/mL
same,IL-6,"[2]; HEp2 −HEMA (+NAC), PBMC −IL-2",880 pg/mL
same,Human dental pulp stromal cells (VEFG secretion),"[3]; NAC alone, no HEMA",1804.1 pg/mL
same,UCLA-2 (VEFG secretion),"[4]; NAC alone, no HEMA",2831.9 pg/mL
same,cells in the stage of late apoptosis (PI/Annexin V),[5]; [13],about 25%
same,apoptotic cell death (PI/Annexin V),HaCaT cells,considerably decreased the percentages of cells positive for PI/Annexin V staining
same,ALP staining (odontoblast function),odontoblasts,positive for ALP staining
same,apoptotic cell death,Jurkat T cells,significantly blocked
same,mitochondrial membrane potential (Δψm),Jurkat cells,restored mitochondrial membrane potential
same,Caspase 3 induction,Caspase 3 [6],decreased the induction of caspase 3 expression
same,levels of full length caspase 3 (processing of caspase 3),Caspase 3 [7],this decrease is inhibited
same,GAPDH mRNA,GAPDH mRNA,prevented this inhibition
same,VEGF secretion,[8],prevented the HEMA-mediated decrease
same,prevention of HEMA-mediated cell death,"mesenchymal stem cells; NAC 20 mM, 18 hours",can prevent HEMA-mediated cell death
same,prevention of HEMA-mediated cell death,"osteoblasts; NAC 20 mM, 18 hours",can prevent HEMA-mediated cell death
same,VEGF,"[9]; HEp2 −HEMA (+NAC 20 mM), Patient PBMC −IL-2",5648
same,VEGF,"[9]; HEp2 −HEMA (+NAC), Patient PBMC +IL-2",5805
